According to patent US8759366B2, “Aminopyrimidines as SYK inhibitors” (Merck Sharp & Dohme Corp., priority 2009, dated 2014):
Counter-ions that a name gives are not always drawn.

These molecules were tested against rhSYK (Homo sapiens (Human), UniProt P43405). Details: read-out: rhSYK activity.

IC50 [nM]	SMILES
< 100	Cc1cc(Nc2nccc(C(F)(F)F)n2)cc(-c2cnc(C3(O)CN(C(C)(C)C(=O)O)C3)s2)c1 [Example 53(1), 2-{3-Hydroxy-3-[5-(3-methyl-5-{[4-(trifluoromethyl)pyrimidin-2-yl]amino}phenyl)-1,3-thiazol-2-yl]azetidin-1-yl}-2-methylpropanoic acid]
< 100	OC(c1ncc(-c2cccc(Nc3nccc(C(F)(F)F)n3)c2)s1)(C1CC1)C(F)(F)F (stereo not drawn) [Example 12, 1-Cyclopropyl-2,2,2-trifluoro-1-[5-(3-{[4-(trifluoromethyl)pyrimidin-2-yl]amino}phenyl)-1,3-thiazol-2-yl]ethanol]
< 100	CC(O)(CO)c1ncc(-c2cccc(Nc3nccc(C(F)(F)F)n3)c2)s1 (stereo not drawn) [Ex 5-1]
< 100	Cc1cc(Nc2nccc(C(F)(F)F)n2)cc(-c2cnc(C3(O)CCN(C(N)=O)CC3)s2)c1 [Example 47, 4-hydroxy-4-[5-(3-methyl-5-{[4-(trifluoromethyl)pyrimidin-2-yl]amino}phenyl)-1,3-thiazol-2-yl]piperidine-1-carboxamide]
< 100	OC(c1ncc(-c2cccc(Nc3nccc(C(F)(F)F)n3)c2)s1)C1CC1 (stereo not drawn) [Example 4A-5, cyclopropyl[5-(3-{[4-(trifluoromethyl)pyrimidin-2-yl]amino}phenyl)-1,3-thiazol-2-yl]methanol]
< 100	Cc1cc(Nc2nccc(C(F)(F)F)n2)cc(-c2cnc(C3(O)CCC(C4(N)CC4)CC3)s2)c1 (stereo not drawn) [Example 4C-20]
100 to 1000	OCCC(O)(CCO)c1ncc(-c2cccc(Nc3nccc(C(F)(F)F)n3)c2)s1 [Example 5, 3-[5-(3-{[4-(trifluoromethyl)pyrimidin-2-yl]amino}phenyl)-1,3-thiazol-2-yl]pentane-1,3,5-triol]
< 100	Cc1cc(Nc2nccc(C(F)(F)F)n2)cc(-c2cnc(C3(O)CCCC4CC43)s2)c1 (stereo not drawn) [Example 4B-18]
< 100	Cc1cc(Nc2nccc(C(F)(F)F)n2)cc(-c2cnc(C3(O)CCCC(C)(CC(=O)O)C3)s2)c1 (stereo not drawn) [Example 4C-23]
< 100	CC(O)(CO)c1ncc(-c2cccc(Nc3nccc(C(F)(F)F)n3)c2)s1 (single isomer, unassigned) [Ex 5-2]
100 to 1000	OC1(c2ncc(-c3cc(Cl)cc(Nc4nccc(C(F)(F)F)n4)c3)s2)CCC1 [Example 3, 1-[5-(3-chloro-5-{[4-(trifluoromethyl)pyrimidin-2-yl]amino}phenyl)-1,3-thiazol-2-yl]cyclobutanol]
< 100	Cc1cc(Nc2nccc(C(F)(F)F)n2)cc(-c2cnc(C3(O)COC3)s2)c1 [Example 4B-12]
1000 to 10000	CC1(C)CC(O)(c2ncc(-c3cccc(Nc4nccc(C(F)(F)F)n4)c3)s2)CC(C)(C)S1 [Example 4B-8]
< 100	Cc1cc(Nc2nccc(C(F)(F)F)n2)cc(-c2cnc([C@]3(O)CC[C@@H](c4noc(=O)[nH]4)CC3)s2)c1 [Example 39, 3-{cis-4-Hydroxy-4-[5-(3-methyl-5-{[4-(trifluoromethyl)pyrimidin-2-yl]amino}phenyl)-1,3-thiazol-2-yl]cyclohexyl}-1,2,4-oxadiazol-5(4H)-one]
< 100	CC(O)(CO)c1ncc(-c2cccc(Nc3nccc(C(F)(F)F)n3)c2)s1 (single isomer, unassigned) [Ex 5-3]
< 100	CC(=O)N1CCC(O)(c2ncc(-c3cccc(Nc4nccc(C(F)(F)F)n4)c3)s2)CC1 [4D-1]
< 100	Cc1cc(Nc2nccc(C(F)(F)F)n2)cc(-c2cnc(C3(O)CCN(C(=O)OC(C)(C)C)CC3)s2)c1 [Example 45, tert-butyl 4-hydroxy-4-[5-(3-methyl-5-{[4-(trifluoromethyl)pyrimidin-2-yl]amino}phenyl)-1,3-thiazol-2-yl]piperidine-1-carboxylate]

More lines, now with the values behind:

SMILES	IC50 [nM]
Cc1cc(Nc2nccc(C)n2)cc(-c2cnc(C3(O)CCC(C)(CC(=O)O)CC3)s2)c1 (single isomer, unassigned) [Example 4C-11]	< 100
COC(=O)C1CC(O)(c2ncc(-c3cc(C)cc(Nc4nccc(C(F)(F)F)n4)c3)s2)CCN1C(=O)OC(C)(C)C (stereo not drawn) [4D-14]	100 to 1000
Cc1cc(Nc2nccc(C(F)(F)F)n2)cc(-c2cnc(CS(N)(=O)=O)s2)c1 [Example 75, 1-[5-(3-methyl-5-{[4-(trifluoromethyl)pyrimidin-2-yl]amino}phenyl)-1,3-thiazol-2-yl]methanesulfonamide]	< 100
Cc1cc(Nc2nccc(C(F)(F)F)n2)cc(-c2cnc(C3(O)CC4(C(=O)O)CCC3(C)C4(C)C)s2)c1 (stereo not drawn) [Example 4B-49]	< 100
Cc1cc(Nc2nccc(C(F)(F)F)n2)cc(-c2cnc(C3(O)C4CC5CC(C4)C(C(=O)O)C3C5)s2)c1 (stereo not drawn) [Example 4B-43]	< 100
Cc1cc(Nc2nccc(C)n2)cc(-c2cnc(C3(O)CCC(CN)CC3)s2)c1 (stereo not drawn) [Example 4C-2]	< 100
Cc1cc(Nc2nccc(C(F)(F)F)n2)cc(-c2cnc(C3CCC(C(=O)O)CC3)s2)c1 (stereo not drawn) [Example 36, 4-[5-(3-methyl-5-{[4-(trifluoromethyl)pyrimidin-2-yl]amino}phenyl)-1,3-thiazol-2-yl]cyclohexanecarboxylic acid]	< 100
Cc1cc(Nc2nccc(C)n2)cc(-c2cnc(C3(C)OC(=O)CC3(C)C)s2)c1 (stereo not drawn) [Example 4B-58]	< 100
Cc1cc(Nc2nccc(C(=O)O)n2)cc(-c2cnc(C(C)(O)C(F)(F)F)s2)c1 (stereo not drawn) [Example 68, 2-({3-methyl-5-[2-(1,1,1-trifluoro-2-hydroxypropan-2-yl)-1,3-thiazol-5-yl]phenyl}amino)-pyrimidine-4-carboxylic acid]	1000 to 10000
CCOC(=O)C1CCC(O)(c2ncc(-c3cc(C)cc(Nc4nccc(C)n4)c3)s2)CC1c1ccccc1C (stereo not drawn) [Example 4C-27]	100 to 1000
Cc1cc(Nc2ncc(Cl)c(C)n2)cc(-c2cnc(C(C)(O)CO)s2)c1 (stereo not drawn) [Ex 5-14]	< 100
Cc1cc(Nc2nccc(C)n2)cc(-c2cnc([C@]3(O)[C@@H]4CC5C[C@@H]3C[C@](C(=O)O)(C5)C4)s2)c1 [Example 4B-31]	< 100
Cc1cc(Nc2nccc(C)n2)cc(-c2cnc(C3(O)CCC(C(=O)O)[C@H]4CCCC[C@@H]43)s2)c1 (stereo partly drawn) [Example 4B-23]	< 100
Cc1cc(Nc2nccc(C(F)(F)F)n2)cc(-c2cnc(C3(C#N)CCC4(CC3)OCCO4)s2)c1 [8-[5-(3-methyl-5-{[4-(trifluoromethyl)pyrimidin-2-yl]amino}phenyl)-1,3-thiazol-2-yl]-1,4-dioxaspiro[4.5]decane-8-carbonitrile]	< 100
Cc1cc(Nc2nccc(C(C)C)n2)cc(-c2cnc(C3(O)CCC3)s2)c1 [Example 56, 1-[5-(3-methyl-5-{[4-(propan-2-yl)pyrimidin-2-yl]amino}phenyl)-1,3-thiazol-2-yl]cyclobutanol HCl salt]	< 100
Cc1cc(Nc2ncc(F)cn2)cc(-c2cncs2)c1 [Intermediate 50, 5-Fluoro-N-[3-methyl-5-(1,3-thiazol-5-yl)phenyl]pyrimidin-2-amine]	100 to 1000
Cc1cc(Nc2nccc(C(F)(F)F)n2)cc(-c2cnc(C(C)(C)O)s2)c1 [Example 4, 2-[5-(3-methyl-5-{[4-(trifluoromethyl)pyrimidin-2-yl]amino}phenyl)-1,3-thiazol-2-yl]propan-2-ol]	< 100
Cc1cc(Nc2nccc(C(F)(F)F)n2)cc(-c2cnc(C3(O)CC4(O)CCC3(C)CC4)s2)c1 (stereo not drawn) [Example 4B-41]	< 100
CCOC(=O)C1CCC(O)(c2ncc(-c3cc(C)cc(Nc4nccc(C(F)(F)F)n4)c3)s2)C(C)C1C (stereo not drawn) [Example 4B-57]	< 100
